The values that follow come from patent US12037324B2, “Biarylmethyl heterocycles” (Université de Montréal, priority 2016, dated 2024).

pEC50: −log10 of the molar value.

Format in all cases: cell-based
The target of assay [1] is T1, AGTR1 (Homo sapiens, UniProt P30556).
T1 construct: host or cells: Pathunter CHO-K1 AGTR1 β-arrestin cell line (CHO-K1)
T1 sequence (P30556 1-359): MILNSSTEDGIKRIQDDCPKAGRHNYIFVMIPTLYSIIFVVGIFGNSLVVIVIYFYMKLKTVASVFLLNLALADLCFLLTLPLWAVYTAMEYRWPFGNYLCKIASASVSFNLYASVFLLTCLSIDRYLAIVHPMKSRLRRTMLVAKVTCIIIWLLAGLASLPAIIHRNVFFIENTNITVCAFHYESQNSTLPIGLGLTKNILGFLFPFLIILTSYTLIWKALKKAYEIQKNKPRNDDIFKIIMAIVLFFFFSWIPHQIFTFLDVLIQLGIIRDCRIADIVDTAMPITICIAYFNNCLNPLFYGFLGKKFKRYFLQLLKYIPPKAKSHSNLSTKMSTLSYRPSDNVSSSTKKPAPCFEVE
The experiment in a line: DiscoveRx β-arrestin2 recruitment assay (enzyme complementation, Pathunter CHO-K1 AGTR1 β-arrestin cell line). The conditions noted are these: DiscoveRx β-arrestin2 recruitment; for DiscoveRx β-arrestin2 Ymax (%): maximal response. The gist of the method:
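CHO-K1 cells expressing AGTR1 with β-arrestin2 enzyme-complementation reporter, plated 14-16 h ahead in 1% serum medium, then exposed to compounds for 90 min at 37° C. Chemiluminescence read after 1 h detection. EC50 (agonist) or IC50 (antagonist) from 4-parameter logistic fit; activity as percentage of All maximal effect.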

Assay [2] concerns the target T1, AGTR1. Nature of the assay: DiscoveRx IP1 accumulation assay (HTRF), agonist mode, Pathunter CHO-K1 AGTR1 β-arrestin cell line. The conditions noted are these: for pEC50: read-out: IP-1 EC50. The method, boiled down:
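Agonist mode in CHO-K1 AGTR1 β-arrestin cells plated 14-16 h before; compounds at varying concentrations for 90 min at 37° C, IP1 accumulation read by HTRF (D2-conjugate and anti-IP1 cryptate, 20 min room temperature). EC50 from 4-parameter logistic fit; activity given as percentage of maximal AII effect.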
A general note: Time-resolved FRET reads energy transfer from a long-lived donor to a nearby acceptor.

A further assay has as its target T2, hAT1R (Homo sapiens, UniProt P30556).
T2 sequence (P30556 1-359): T1 sequence (P30556 1-359)
The experiment in a line: BRET β-arrestin2 biosensor assay, higher receptor expression (hAT1R 5 ng/well), HEK293 cells. The conditions noted are these: for pEC50: High AT1R Expression.

For orientation: pEC50 means the EC50 on a negative log10 scale, so that one unit is a factor of ten. Regarding `CCc1nc2c(C)cc(C)nc2n1Cc1ccc(-c2cc(Oc3ccccc3)cc(C)c2-c2nnn[nH]2)cc1` [Example 211, 2-Ethyl-5,7-dimethyl-3-((3′-methyl-5′-phenoxy-2′-(1H-tetrazol-5-yl)-[1,1′-biphenyl]-4-yl)methyl)-3H-imidazo[4,5-b]pyridine], at AGTR1 [1], the pEC50 was 7.01 and the “DiscoveRx β-arrestin2 Ymax (%)” value worked out at 21.2%. In addition, at AGTR1 [2], the “IP-1 Ymax (%)” value was found to be 8.7% and the negative-log EC50 (pEC50) is 6.63. For the same compound, at hAT1R, the “BRET β-Arrestin2 High AT1R Expression Ymax (%)” value came out at 80.2% and the pEC50 was 7.17.

Consider `CCc1nc2c(C)cc(C)nc2n1Cc1ccc(-c2cc(Oc3ccccc3)ccc2C(=O)O)cc1` [Example 213, 4′-((2-Ethyl-5,7-dimethyl-3H-imidazo[4,5-b]pyridin-3-yl)methyl)-5-phenoxy-[1,1′-biphenyl]-2-carboxylic acid], for which, on AGTR1 [1], the negative-log EC50 (pEC50) is 6.67 and the “DiscoveRx β-arrestin2 Ymax (%)” value is on record as 27.3%. Moreover, on AGTR1 [2], the “IP-1 Ymax (%)” value was 6.9% and the negative-log EC50 (pEC50) is 6.06. At hAT1R, the “BRET β-Arrestin2 High AT1R Expression Ymax (%)” value is listed as 89.9% and the negative logarithm of the EC50 (pEC50) is 7.03.

Consider `CCCCC1=NC2(CCCC2)C(=O)N1Cc1ccc(-c2cc(N3CCC[C@@H](C)C3)ccc2-c2nn[nH]n2)cc1` [Example 106], for which, at AGTR1 [1], the negative logarithm of the EC50 (pEC50) is 7.75 and the “DiscoveRx β-arrestin2 Ymax (%)” value is reported as 6.3%. For the same compound, the negative logarithm of the EC50 (pEC50) on AGTR1 [2] was under 4.00. Also, on hAT1R, the “BRET β-Arrestin2 High AT1R Expression Ymax (%)” value amounted to 12.4% and the pEC50 was 6.86.

In the case of `CCCCC1=NC2(CCCC2)C(=O)N1Cc1ccc(-c2cc(N3CC(C)(C)c4ccccc43)ccc2-c2nn[nH]n2)cc1` [Example 107], at AGTR1 [1], the negative-log EC50 (pEC50) is 7.57 and the “DiscoveRx β-arrestin2 Ymax (%)” value is 24.6%. Also, the pEC50 on AGTR1 [2] is under 4.00. Moreover, at hAT1R, the “BRET β-Arrestin2 High AT1R Expression Ymax (%)” value came to 54.3% and the pEC50 is 6.65.

Regarding `CCc1nc2c(C)cc(C)nc2n1Cc1ccc(-c2cc(C3=CCCCC3)ccc2-c2nn[nH]n2)cc1` [Example 70, 3-((6′-(2H-Tetrazol-5-yl)-2″,3″,4″,5″-tetrahydro-[1,1′:3′,1″-terphenyl]-4-yl)methyl)-2-ethyl-5,7-dimethyl-3H-imidazo[4,5-b]pyridine], at AGTR1 [1], the pEC50 was 7.88 and the “DiscoveRx β-arrestin2 Ymax (%)” value was determined as 58.7%. Moreover, the pEC50 at AGTR1 [2] was under 4.30. Further, on hAT1R, the “BRET β-Arrestin2 High AT1R Expression Ymax (%)” value is on record as 94.7% and the pEC50 was 8.15.

As to `CCCCC1=NC2(CCCC2)C(=O)N1Cc1ccc(-c2cc(-c3ccsc3)ccc2-c2nn[nH]n2)cc1` [Example 130], at AGTR1 [1], the pEC50 is 7.66 and the “DiscoveRx β-arrestin2 Ymax (%)” value is given as 31.2%. At AGTR1 [2], the “IP-1 Ymax (%)” value was found to be 5.9% and the negative logarithm of the EC50 (pEC50) was 6.97. In addition, on hAT1R, the “BRET β-Arrestin2 High AT1R Expression Ymax (%)” value was 80.0% and the pEC50 is 7.58.

For `CCCCOC(=O)NS(=O)(=O)c1sc(-c2ccccc2)cc1-c1ccc(Cn2c(CC)nc3c(C)cc(C)nc32)cn1` [Example 50, Butyl (3-(5-((2-ethyl-5,7-dimethyl-3H-imidazo[4,5-b]pyridin-3-yl)methyl)pyridin-2-yl)-5-phenylthiophen-2-yl)sulfonylcarbamate], at AGTR1 [1], the negative-log EC50 (pEC50) is 7.96 and the “DiscoveRx β-arrestin2 Ymax (%)” value was found to be 21.8%. Moreover, on AGTR1 [2], the “IP-1 Ymax (%)” value is listed as 6.7% and the pEC50 is 6.88. At hAT1R, the “BRET β-Arrestin2 High AT1R Expression Ymax (%)” value came to 64.9% and the pEC50 is 7.77.

On to `CCc1nc2c(C)cc(C)nc2n1Cc1ccc(-c2cc(-c3ccc(C(F)(F)F)cc3)ccc2-c2nn[nH]n2)cc1` [Example 7], for which, on AGTR1 [1], the pEC50 was 7.84 and the “DiscoveRx β-arrestin2 Ymax (%)” value is 21.6%. Moreover, at AGTR1 [2], the “IP-1 Ymax (%)” value was 9.2% and the pEC50 was 7.08. At hAT1R, the “BRET β-Arrestin2 High AT1R Expression Ymax (%)” value came out at 60.0% and the pEC50 was 7.43.

Turning to `CCc1nc2c(C)cc(C)nc2n1Cc1ccc(-c2cc(N3CCC(C)CC3)ccc2-c2nn[nH]n2)cc1` [Example 97, 2-ethyl-5,7-dimethyl-3-((5′-(4-methylpiperidin-1-yl)-2′-(2H-tetrazol-5-yl)-[1,1′-biphenyl]-4-yl)methyl)-3H-imidazo[4,5-b]pyridine], on AGTR1 [1], the pEC50 is 7.82 and the “DiscoveRx β-arrestin2 Ymax (%)” value was 34.3%. At AGTR1 [2], the “IP-1 Ymax (%)” value is on record as 7.3% and the pEC50 is 7.33. Besides, at hAT1R, the “BRET β-Arrestin2 High AT1R Expression Ymax (%)” value was 79.7% and the negative-log EC50 (pEC50) was 7.51.

As to `CCc1nc2c(C)cc(C)nc2n1Cc1ccc(-c2cc(-c3ccc(OC(F)(F)F)cc3)ccc2-c2nn[nH]n2)cc1` [Example 6], at AGTR1 [1], the pEC50 was 7.85 and the “DiscoveRx β-arrestin2 Ymax (%)” value came out at 27.0%. Also, on AGTR1 [2], the “IP-1 Ymax (%)” value is 4.9% and the pEC50 was 7.84. Moreover, at hAT1R, the “BRET β-Arrestin2 High AT1R Expression Ymax (%)” value is recorded as 73.5% and the pEC50 is 7.29.

With `CCCCOC(=O)NS(=O)(=O)c1sc(-c2ccccc2C)cc1-c1ccc(Cn2c(CC)nc3c(C)cc(C)nc32)cc1` [Example 40, Butyl (3-(4-((2-ethyl-5,7-dimethyl-3H-imidazo[4,5-b]pyridin-3-yl)methyl)phenyl)-5-(o-tolyl)thiophen-2-yl)sulfonylcarbamate], on AGTR1 [1], the negative logarithm of the EC50 (pEC50) is 8.03 and the “DiscoveRx β-arrestin2 Ymax (%)” value stood at 36.4%. At AGTR1 [2], the “IP-1 Ymax (%)” value was 8.5% and the pEC50 is 7.92. Besides, on hAT1R, the “BRET β-Arrestin2 High AT1R Expression Ymax (%)” value is recorded as 84.6% and the pEC50 was 7.85.

With `CCCCOC(=O)NS(=O)(=O)c1sc(-c2ccccc2C(F)(F)F)cc1-c1ccc(Cn2c(CC)nc3c(C)cc(C)nc32)cc1` [Example 45, Butyl (3-(4-((2-ethyl-5,7-dimethyl-3H-imidazo[4,5-b]pyridin-3-yl)methyl)phenyl)-5-(2-(trifluoromethyl)phenyl)thiophen-2-yl)sulfonylcarbamate], on AGTR1 [1], the pEC50 was 7.61 and the “DiscoveRx β-arrestin2 Ymax (%)” value amounted to 60.3%. Besides, at AGTR1 [2], the “IP-1 Ymax (%)” value stood at 14.5% and the negative-log EC50 (pEC50) was 7.84. In addition, on hAT1R, the “BRET β-Arrestin2 High AT1R Expression Ymax (%)” value is listed as 92.2% and the pEC50 is 7.46.

Consider `CCCCOC(=O)NS(=O)(=O)c1sc(-c2ccccc2C)cc1-c1ccc(Cn2c(CC)nc3c(C)cc(C)nc32)cn1` [Example 39, Butyl (3-(5-((2-ethyl-5,7-dimethyl-3H-imidazo[4,5-b]pyridin-3-yl)methyl)pyridin-2-yl)-5-(o-tolyl)thiophen-2-yl)sulfonylcarbamate], for which, on AGTR1 [1], the pEC50 is 7.48 and the “DiscoveRx β-arrestin2 Ymax (%)” value was 23.3%. For the same compound, on AGTR1 [2], the “IP-1 Ymax (%)” value is 4.8% and the pEC50 is 6.90. On hAT1R, the “BRET β-Arrestin2 High AT1R Expression Ymax (%)” value stood at 37.9% and the negative logarithm of the EC50 (pEC50) is 7.73.

As to `CCCCOC(=O)NS(=O)(=O)c1sc(-c2cccnc2OC)cc1-c1ccc(Cn2c(CC)nc3c(C)cc(C)nc32)cc1` [Example 47, Butyl (3-(4-((2-ethyl-5,7-dimethyl-3H-imidazo[4,5-b]pyridin-3-yl)methyl)phenyl)-5-(2-methoxypyridin-3-yl)thiophen-2-yl)sulfonylcarbamate], on AGTR1 [1], the pEC50 is 8.00 and the “DiscoveRx β-arrestin2 Ymax (%)” value is reported as 24.5%. For the same compound, on AGTR1 [2], the “IP-1 Ymax (%)” value came to 3.8% and the negative-log EC50 (pEC50) is 8.21. At hAT1R, the “BRET β-Arrestin2 High AT1R Expression Ymax (%)” value came to 56.6% and the negative logarithm of the EC50 (pEC50) was 7.83.

Take `CCCCC1=NC2(CCCC2)C(=O)N1Cc1ccc(-c2cc(-c3ccccc3)ccc2-c2noc(=O)[nH]2)cc1` [Example 143, 3-(4″-((2-butyl-4-oxo-1,3-diazaspiro[4.4]non-1-en-3-yl)methyl)-[1,1′:3′,1″-terphenyl]-4′-yl)-1,2,4-oxadiazol-5(4H)-one]: on AGTR1 [1], the negative logarithm of the EC50 (pEC50) is 8.08 and the “DiscoveRx β-arrestin2 Ymax (%)” value amounted to 47.4%. On AGTR1 [2], the “IP-1 Ymax (%)” value is 5.2% and the pEC50 is 7.74. In addition, at hAT1R, the “BRET β-Arrestin2 High AT1R Expression Ymax (%)” value turned out to be 94.6% and the negative logarithm of the EC50 (pEC50) was 8.09.

For `CCCCc1nc(Cl)c(CO)n1Cc1ccc(-c2cc(-c3ccccc3)ccc2-c2nnn[nH]2)cc1` [Example 35, (1-((6′-(1H-Tetrazol-5-yl)-[1,1′:3′,1″-terphenyl]-4-yl)methyl)-2-butyl-4-chloro-1H-imidazol-5-yl)methanol], on AGTR1 [1], the negative logarithm of the EC50 (pEC50) is 7.19 and the “DiscoveRx β-arrestin2 Ymax (%)” value is 28.2%. Also, the pEC50 at AGTR1 [2] is under 4.30. Moreover, on hAT1R, the “BRET β-Arrestin2 High AT1R Expression Ymax (%)” value worked out at 76.7% and the pEC50 is 6.83.

Turning to `CCc1nc2c(C)cc(C)nc2n1Cc1ccc(-c2cc(N3CC(C)(C)c4ccccc43)ccc2-c2nn[nH]n2)cc1` [Example 84], on AGTR1 [1], the pEC50 is 7.04 and the “DiscoveRx β-arrestin2 Ymax (%)” value is reported as 35.3%. On AGTR1 [2], the “IP-1 Ymax (%)” value was 6.6% and the negative logarithm of the EC50 (pEC50) is 6.90. Further, at hAT1R, the “BRET β-Arrestin2 High AT1R Expression Ymax (%)” value was 88.9% and the negative-log EC50 (pEC50) was 7.44.

For the compound `CCc1nc2c(C)cc(C)nc2n1Cc1ccc(-c2cc(-c3ccc4ncccc4c3)ccc2-c2nn[nH]n2)cc1` [Example 13], at AGTR1 [1], the negative logarithm of the EC50 (pEC50) is 7.89 and the “DiscoveRx β-arrestin2 Ymax (%)” value was found to be 24.8%. In addition, the pEC50 on AGTR1 [2] is under 6.00. Moreover, on hAT1R, the “BRET β-Arrestin2 High AT1R Expression Ymax (%)” value was 53.8% and the negative-log EC50 (pEC50) is 7.94.
